Entries after “also recorded” stand apart in the source; their conditions may differ. Where two headings read alike, the source gives them in different places.
Columns and labels:
[1] = tested on: human tumour cells; conditions: in vitro, pre-clinical; cited from earlier work
[2] = Plasma pharmacokinetics in patients;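 further: patient plasma drug levels measured by validated HPLC with mass spectrometric detection after a 3 h fast, PK parameters from non-compartmental analysis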
Experimental: (§1) Patients were fasted for 3 h prior to administration of AZD0424. Blood samples for analysis of plasma levels of AZD0424 were taken at the following time points: Cycle 1: Pre-dose and at 0.5, 1, 2, 4, 6 and 10 h post-dose on Day 1, then at 24 and 48 h and pre-dose on Days 8, 15 and 22; Cycle 2 (Day 29): Pre-dose and at 0.5, 1, 2, 4, 6, 10, 24 and 48 h. For patients receiving twice-daily AZD0424, the timing of samples was in relation to the morning dose of the drug. Plasma was isolated from centrifuged blood samples and stored at −80 °C prior to quantification of AZD0424 by a validated high performance liquid chromatography method with mass spectrometric detection. Plasma concentration/time data were analysed using non-compartmental methods.

[3] = tested on: VEGFR-2; conditions: ref Cancer Research UK Centre for Drug Development, 2015; cited from earlier work
[4] = tested on: mouse fibroblasts engineered to over-express activated Src kinase (c-SRC 3T3); conditions: in vitro, pre-clinical; cited from earlier work
[5] = tested on: Yes; parameters: method as in Cancer Research UK Centre for Drug Development, 2015; conditions: ref Cancer Research UK Centre for Drug Development, 2015; cited from earlier work
[6] = tested on: c-Src 3T mouse xenografts; conditions: immunocompromised rats, subcutaneous, pre-clinical; cited from earlier work
[7] = tested on: Lck; parameters: method as in Cancer Research UK Centre for Drug Development, 2015; conditions: ref Cancer Research UK Centre for Drug Development, 2015; cited from earlier work
[8] = tested on: paxillin; conditions: in vitro, pre-clinical; cited from earlier work
[9] = clinical; conditions: human, plasma, oral
Experimental: as §1

[10] = tested on: non-engineered human tumour cell lines; conditions: in vitro, diverse panel, pre-clinical; cited from earlier work
[11] = tested on: Src; assay: Urinary NTX and serum CTX levels as markers of Src inhibition; type: in vivo, human
Experimental: Src inhibition is known to reduce bone resorption, resulting in a decrease in urinary N-terminal cross-linking telopeptides of type I collagen (NTX) and serum C-terminal cross-linking telopeptides of type I collagen (CTX) ([Hannon et al, 2012]). Measurements of urinary NTX and serum CTX levels were performed before the first administration of AZD0424 and then weekly, at the same time of day, for up to 6 weeks following first administration as markers of Src inhibition. Samples were analysed at the Mellanby Centre for Bone Research in Sheffield using the Cobas e411 automated immunoassay (Roche Diagnostics, Mannheim, Germany) for serum CTX (ng ml^−1), and the Ortho Clinical Diagnostics (High Wycombe, UK) automated immunoassay for urine NTX. Urinary NTX measurements were reported as a ratio to urinary creatinine (nmol bone collagen equivalent (BCE)/mmol creatinine). Tumour biopsies for measurement of tumour biomarkers (p-Src, Ki67, p-PAX, and p-FAK) by immunohistochemical staining were optional.

[12] = tested on: human Calu-6 lung tumour xenografts; conditions: rats, pre-clinical; cited from earlier work
[13] = rat, pre-clinical; cited from earlier work
[14] = dog, pre-clinical; cited from earlier work
[15] = tested on: human umbilical vein endothelial cell cultures; conditions: in vitro, growth factor stimulated, pre-clinical; cited from earlier work
[16] = type: in vivo
[17] = tested on: ABL1; parameters: method as in Cancer Research UK Centre for Drug Development, 2015; conditions: ref Cancer Research UK Centre for Drug Development, 2015; cited from earlier work
[18] = tested on: C-terminal Src tyrosine kinase (CSK); conditions: cited from earlier work
[19] = tested on: Src; parameters: method as in Cancer Research UK Centre for Drug Development, 2015; conditions: ref Cancer Research UK Centre for Drug Development, 2015; cited from earlier work
[20] = tested on: advanced solid tumours; assay: Disease response by RECIST 1.1; type: in vivo, human
Experimental: All patients receiving at least one dose of AZD0424 were evaluable for safety and efficacy analyses. Safety and tolerability of AZD0424 were assessed according to NCI CTCAE version 4.02. Patients who were withdrawn from treatment, or received less than 75% of the planned doses of AZD0424 during the first cycle, for reasons other than toxicity were not evaluable for dose review decisions and could be replaced. Disease response was assessed according to RECIST 1.1. For stable disease (SD), follow-up measurements had to meet the SD criteria at least once at least 6 weeks after the first dose of AZD0424.

[21] = human, in vivo
Experimental: (§2) Treatment cycles consisted of 28 days of continuous AZD0424 administration, and treatment was to be continued until disease progression, patient withdrawal or unacceptable toxicity.
(§3) All patients receiving at least one dose of AZD0424 were evaluable for safety and efficacy analyses. Safety and tolerability of AZD0424 were assessed according to NCI CTCAE version 4.02.

[22] = Phase Ia dose escalation: safety and tolerability (NCI CTCAE v4.02, DLT, MTD)
Experimental: as §2, §3

[23] = tested on: breast cancer cell; parameters: method as in Srinivasan and Plattner, 2006; conditions: ref Srinivasan and Plattner, 2006; cited from earlier work
[24] = parameters: method as in Reddy et al, 2015; conditions: colorectal cancer patients; ref Reddy et al, 2015; cited from earlier work
[25] = parameters: method as in Baselga et al, 2010; conditions: ref Baselga et al, 2010; cited from earlier work

CC(=O)N1CCN(CCOc2cc(OC(C)C)c3c(Nc4c(Cl)cnc5c4OCO5)ncnc3c2)CC1 [AZD0424, 7-[2-(4-Acetylpiperazin-1-yl)ethoxy]-N-(6-chloro[1,3]dioxolo[4,5-b]pyridin-7-yl)-5-isopropoxyquinazolin-4-amine]
inhibition of migration [1]: potent inhibition of migration | Cmax and AUC(0-24 h) compared with saracatinib ([2]; comparable doses, saracatinib data ref Baselga et al, 2010): much higher for AZD0424 than saracatinib | dose dependence of Cmax and AUC ([2]; o.d. dosing 5-150 mg): increased linearly with dose; also recorded: Linear, dose-dependent increases; also recorded: dose-dependent, linear increases | absorption and bioavailability ([2]; oral): rapid absorption and high bioavailability | selectivity for Src-Abl1 kinases vs VEGFR-2 [3]: > 933 fold | inhibition of proliferation [4]: potent inhibition of proliferation | activity against Yes [5]: additional activity | inhibition of tumour growth [6]: profound, dose-dependent inhibition of tumour growth | activity against Lck [7]: additional activity | inhibition of phosphorylation of paxillin [8]: evidence of inhibition of phosphorylation | Tmax [9]: < 2 h | half-life [9]: 8.4 ± 2.8 h | AUC(0-t) ([9]; 5 mg): 0.624 µM·h | Cmax ([9]; 5 mg): 68.3 nM | half-life ([9]; 5 mg): 6.7 h | AUC(0-t) ([9]; 10 mg): 1.57 µM·h | Cmax ([9]; 10 mg): 210 nM | half-life ([9]; 10 mg): 6.3 h | Cmax ([9]; 20 mg): 590 ± 300 nM | half-life ([9]; 20 mg): 6.8 ± 2.6 h | AUC(0-t) ([9]; 40 mg): 6.81 ± 3.46 µM·h | Cmax ([9]; 40 mg): 715 ± 380 nM | half-life ([9]; 40 mg): 10.5 ± 0.8 h | AUC(0-t) ([9]; 60 mg): 9.88 ± 1.77 µM·h | Cmax ([9]; 60 mg): 1380 ± 215 nM | half-life ([9]; 60 mg): 8.2 ± 3.3 h | AUC(0-t) ([9]; 80 mg): 14.1 ± 5.12 µM·h | Cmax ([9]; 80 mg): 1670 ± 602 nM | half-life ([9]; 80 mg): 9.4 ± 5 h | AUC(0-t) ([9]; 120 mg): 24.9 ± 12 µM·h | Cmax ([9]; 120 mg): 2650 ± 923 nM | half-life ([9]; 120 mg): 7.8 ± 3.1 h | AUC(0-t) ([9]; 150 mg): 25.6 ± 4.15 µM·h | Cmax ([9]; 150 mg): 4110 ± 1540 nM | half-life ([9]; 150 mg): 7.8 ± 2.1 h | inhibition of proliferation [10]: generally poor | change in CTX or NTX level ([11]; 5 mg, single patient): No significant post-administration changes | dose giving clear evidence of Src target inhibition / inhibition of bone turnover ([11]; CTX and NTX): ≥ 20 mg per day | change in CTX and NTX ([11]; all cohorts other than 5 mg, by week 2, maintained to 7 weeks): a fall relative to baseline values in both CTX and NTX | percentage reductions in CTX and NTX compared with 50 mg per day of saracatinib ([11]; doses of more than 10 mg per day, saracatinib data ref Hannon et al, 2012): Greater percentage reductions | anti-tumour growth effect [12]: moderate anti-tumour growth effects | dose limiting toxicity [13]: gastrointestinal toxicity being dose limiting | hypotension and reflex tachycardia [13]: Hypotension and reflex tachycardia were also observed | dose limiting toxicity [14]: gastrointestinal toxicity being dose limiting | hypotension and reflex tachycardia [14]: Hypotension and reflex tachycardia were also observed | inhibition of proliferation [15]: inhibited proliferation | one tenth of the maximum tolerated dose in rat scaled to man [16]: 17 mg | IC50 [17]: ~4 nM | selectivity for Src-Abl1 kinases vs CSK ([18]; ref Cancer Research UK Centre for Drug Development, 2015): > 448 fold | IC50 [19]: ~4 nM | rate of PD ([20]; 22/41): 53.7% | patients with SD lasting >12 weeks ([20]; all cohorts): five | patients with best response of PD ([20]; all cohorts): Twenty-two | patients with best response of stable disease lasting at least 6 weeks ([20]; all cohorts, 7 of 41 patients): 17.1% | complete response or partial response ([20]; all cohorts, N=41): No responses were observed; also recorded: No patients | Alopecia, treatment-related AE, All grades patients [21]: 17 (41) n (%) | Alopecia, treatment-related AE, Grade 3–5 patients [21]: 0 n (%) | Anaemia, treatment-related AE, All grades patients [21]: 7 (17) n (%) | Anaemia, treatment-related AE, Grade 3–5 patients [21]: 3 (7) n (%) | Anorexia, treatment-related AE, All grades patients [21]: 19 (46) n (%) | Anorexia, treatment-related AE, Grade 3–5 patients [21]: 1 (2) n (%) | Aspartate aminotransferase increased, treatment-related AE, All grades patients [21]: 5 (12) n (%) | Aspartate aminotransferase increased, treatment-related AE, Grade 3–5 patients [21]: 0 n (%) | Cmin at which Grade 2 or 3 hypophosphataemia appeared more frequent [21]: ≥ 200 nM | Constipation, treatment-related AE, All grades patients [21]: 6 (15) n (%) | Constipation, treatment-related AE, Grade 3–5 patients [21]: 1 (2) n (%) | Diarrhoea, treatment-related AE, All grades patients [21]: 12 (29) n (%) | Diarrhoea, treatment-related AE, Grade 3–5 patients [21]: 2 (5) n (%) | Dysgeusia, treatment-related AE, All grades patients [21]: 14 (34) n (%) | Dysgeusia, treatment-related AE, Grade 3–5 patients [21]: 0 n (%) | Fatigue, treatment-related AE, All grades patients [21]: 21(51) n (%) | Fatigue, treatment-related AE, Grade 3–5 patients [21]: 5 (12) n (%) | Headache, treatment-related AE, All grades patients [21]: 5 (12) n (%) | Headache, treatment-related AE, Grade 3–5 patients [21]: 0 n (%) | Hypophosphataemia, treatment-related AE, All grades patients [21]: 16 (39) n (%) | Hypophosphataemia, treatment-related AE, Grade 3–5 patients [21]: 8 (20) n (%) | Lymphocyte count decreased, treatment-related AE, All grades patients [21]: 10 (24) n (%) | Lymphocyte count decreased, treatment-related AE, Grade 3–5 patients [21]: 5 (12) n (%) | Maculopapular rash, treatment-related AE, All grades patients [21]: 9 (22) n (%) | Maculopapular rash, treatment-related AE, Grade 3–5 patients [21]: 2 (5) n (%) | Nausea, treatment-related AE, All grades patients [21]: 27 (66) n (%) | Nausea, treatment-related AE, Grade 3–5 patients [21]: 2 (5) n (%) | Pruritis, treatment-related AE, All grades patients [21]: 7 (17) n (%) | Pruritis, treatment-related AE, Grade 3–5 patients [21]: 0 n (%) | Vomiting, treatment-related AE, All grades patients [21]: 13 (32) n (%) | Vomiting, treatment-related AE, Grade 3–5 patients [21]: 1 (2) n (%) | dose above which treatment-related AE episodes and Grade 3-5 AEs increased markedly [21]: above 60 mg per day | nausea, fatigue, anorexia and alopecia, each: patients with treatment-related AE [21]: > 40% | patients with AE of Grade 3 hypophosphataemia related to the drug [21]: 19.5% | patients with at least one AE possibly, probably or highly probably related to AZD0424 [21]: 92.7% | patients with at least one AZD0424-related event Grade 3-5 in severity [21]: 41.5% | patients with decline in lymphocyte count [21]: 68.3% | patients with dose delays and/or alterations during the study [21]: 63.4% | protocol-defined RP2D [21]: 80 mg | deaths due to pneumonia considered possibly related to AZD0424 ([22]; all cohorts): One | patients who died within 4 weeks of the last administration ([22]; all cohorts): Four | maximum tolerated dose (MTD) ([22]; o.d., continuous oral dosing, 28-day cycles): 120 mg

Cc1ccc(NC(=O)c2ccc(CN3CCN(C)CC3)cc2)cc1Nc1nccc(-c2cccnc2)n1 [imatinib]
inhibition of cell motility [23]: markedly inhibits cell motility

COc1cc(Nc2c(C#N)cnc3cc(OCCCN4CCN(C)CC4)c(OC)cc23)c(Cl)cc1Cl [bosutinib, reference compound]
selectivity for SFKs over CSK ([18]; ref Davis et al, 2011): ~30 fold

CN1CCN(CCOc2cc(OC3CCOCC3)c3c(Nc4c(Cl)ccc5c4OCO5)ncnc3c2)CC1 [saracatinib]
rate of Grade 3 hypophosphataemia [24]: 50% | recommended phase II dose (RP2D) [25]: 175 mg

Reference: PMC5877436, “A first-in-human phase I study to determine the maximum tolerated dose of the oral Src/ABL inhibitor AZD0424” (British Journal of Cancer, 2018)
